Values of other authors as cited in patent US7858598B2, “Reagents for detection of hypochlorous acid” (Morningside Ventures Limited & Versitech Limited, priority 2007, dated 2010).

## OCl [hypochlorous acid]
  pKa: 7.6
